# Measurements taken from US20190298772A1, “COMBINATION THERAPY OF A T CELL-BASED THERAPY AND A BTK INHIBITOR” (Juno Therapeutics, Inc., priority 2016, published 2019).
# Key:
# [1] = system: CD19+Nalm-6 disseminated tumor line; test: Nalm-6 disseminated tumor xenograft mouse model, ibrutinib by daily oral gavage; format: in vivo, NOD/Scid/gc−/− (NSG) mice
# Text: On day zero (0), NSG mice were intravenously injected with 5×10^5 Nalm-6 cells expressing firefly luciferase. […] To permit assessment of the effect of a combination therapy with the inhibitor, a suboptimal dose of anti-CD19 CAR T cells from two different donors (generated by transducing cells derived from samples of human donor subjects essentially as described above) were i.v. injected into each mouse at a concentration of 5×10^5 CAR+ T cells per mouse at day 5. […] Eight (N=8) mice per group were monitored.
# Following treatment as described above, tumor growth over time was measured by bioluminescence imaging and the average radiance (p/s/cm^2/sr) was measured. Survival of treated mice also was assessed over time.
# anti-CD19 CAR T cells [2] = test: Cytokine production in supernatants of CAR-T / K562-CD19 co-cultures (MSD); format: cell-based, human
# Text: (§1) To generate CAR-expressing T cells, T cells were isolated by immunoaffinity-based enrichment from three healthy human donor subjects, and cells from each donor were activated and transduced with a viral vector encoding an anti-CD19 CAR. The CAR contained an anti-CD19 scFv, an Ig-derived spacer, a human CD28-derived transmembrane domain, a human 4-1BB-derived intracellular signaling domain and a human CD3 zeta-derived signaling domain. The nucleic acid construct encoding the CAR also included a truncated EGFR (tEGFR) sequence for use as a transduction marker, separated from the CAR sequence by a self-cleaving T2A sequence.
# (§2) CAR-expressing CD4+ and CD8+ cells were mixed 1:1 for each donor, individually, and the pooled cells for each donor assessed in vitro under various conditions.
# CAR-T cells generated as described above were plated at 100,000 cells/well on 96 well Poly-D-Lysine coated plates to which irradiated target cells (K562-CD19) were added at an effector to target ratio of 2.5:1. […] Culture supernatants were harvested every 24 hrs at days 1, 2, 3 and 4, and IFNγ, IL-2, TNFα, IL-4 and IL-10 were measured from the culture supernatants using cytokine kits from Meso Scale Discovery (MSD).
# anti-CD19 CAR+ T cells [3] = test: Pharmacokinetic analysis of CAR+ T cells and tumor cells in blood, bone marrow and spleen; format: in vivo, NSG mice
# Method: (§3) NSG mice described in Example 2 were intravenously injected on day 0 with 5×10^5 Nalm-6 cells expressing firefly luciferase. […] To permit assessment of the effect of a combination therapy with the inhibitor, a suboptimal dose of anti-CD19 CAR T cells was i.v. injected into the mice at 5×10^5/mouse at day 5. As a control, mice were administered the vehicle control without administration of the CAR-T cells or inhibitor.
# Samples were analyzed to assess presence and levels of CAR T cells (based on expression of the surrogate marker using an anti-EGFR antibody) and/or tumor cells at days 7, 12, 19 and 26 post CAR+ T cell transfer.
# anti-CD19 CAR T cells [4] = test: Gene expression analysis (Nanostring Immune V2 panel) after 18 days serial stimulation; format: cell-based, human; conditions: 50 nM or 500 nM; day 18
# Text: At day 18 after serial stimulation, RNA was isolated from anti-CD19 CAR T cells and Nanostring Immune V2 panel tests were run across 594 genes. The log 2 (fold change) of each gene was plotted against the −log 10(Raw p-value) derived from ANOVA tests of unscaled housekeeping gene normalized to count data for treatment versus control.
# anti-CD19 CAR T cells [5] = test: Expression of CAR-T cell surface markers by flow cytometry after stimulation with irradiated K562-CD19 cells; format: cell-based, human
# Text: as §1, §2
# CAR-T cells generated as described above were plated at 100,000 cells/well on 96 well Poly-D-Lysine coated plates. Irradiated K562-CD19 target cells were added at an effector to target ratio of 2.5:1. […] Cells were harvested at 1, 2, 3, and 4 days, and were analyzed by flow cytometry for T cell activation and differentiation surface markers CD69, CD107a, PD-1, CD25, CD38, CD39, CD95, CD62L, CCR7, CD45RO and for truncated EGFR (a surrogate marker for CAR-transduced cells).
# anti-CD19 CAR T cells [6] = test: TH1 phenotype and marker flow cytometry of CAR T cells from serial restimulation; format: cell-based, human
# Method: (§4) The ability of cells to expand ex vivo following repeated stimulations in some aspects can indicates capacity of CAR-T cells to persist (e.g., following initial activation) and/or is indicative of function and/or fitness in vivo (Zhao et al. (2015) Cancer Cell, 28:415-28). Anti-CD19 CAR+ T cells generated as described above were plated in triplicate at 100,000 cells/well on 96 well Poly-D-Lysine coated plates, and irradiated target cells (K562-CD19) were added at an effector to target ratio of 2.5:1. […] A total of 7 rounds of stimulation during a 25 day culture period were carried out.
# A serial restimulation assay was performed as described above and cells were harvested at various times and analyzed by flow cytometry to assess percentage of TH1-phenotype (assessed as CD4+CXCR3+CRTH2−) T cells or TH2-phenotype (assessed as CD4+CXCR3−CRTH2+).
# CAR-expressing T cells = test: RNA-Seq molecular signature of CAR-expressing T cells after 18 days serial stimulation; format: cell-based, human; conditions: day 18
# Method: RNA isolation was performed using the RNEasy Micro Kit (Qiagen). Samples were sequenced and RNASeq reads were mapped to the human genome (GRCh38) and aligned to the GENCODE release 24 gene model. […] Differentially expressed genes were identified by imposing a log2 fold change cutoff of 0.5 and a Benjamini-Hochberg adjusted false discovery rate (FDR) cutoff of 0.05.
# [7] = system: CD19+Nalm-6 disseminated tumor line; test: Nalm-6 disseminated tumor xenograft mouse model, ibrutinib in drinking water; format: in vivo, NSG mice
# Method: as §3
# anti-CD19 CAR+ T cells [8] = test: Ex vivo immunophenotyping (t-SNE) of CAR+ T cells from bone marrow at day 12; format: in vivo, NSG mice; conditions: day 12 post CAR T transfer
# Method: as §3
# Cells were assessed for surface markers CD44, CD45RA, CD62L, CD154, CXCR3, CXCR4, and PD-1 by flow cytometry and T-distributed stochastic neighbor embedding (t-SNE) high dimensional analysis was performed using FlowJo software. […] FACs histograms showing the individual expression profiles of CD4, CD8, CD62L, CD45RA, CD44 and CXCR3 from the 4 gated t-SNE in FIG. 8B overlaid on the expression of the total population (shaded) is shown in FIG. 8C.
# anti-CD19 CAR T cells [9] = test: Cytolytic activity of anti-CD19 CAR T cells co-cultured with K562-CD19 target cells in the presence of ibrutinib; format: cell-based, human
# Text: as §1, §2
# CAR T cells generated as described above were plated in triplicate on Poly-D-Lysine plates and then co-cultured with ibrutinib-resistant CD19-expressing target cells (K562 cells transduced to express CD19, K562-CD19) at an effector to target (E:T) ratio of 2.5:1. The target cells were labeled with NucLight Red (NLR), to permit tracking of target cells by microscopy.
# anti-CD19 CAR T cells [10] = test: Serial restimulation assay of anti-CD19 CAR+ T cells with K562-CD19 target cells; format: cell-based, human
# Text: as §1, §2, §4
# [11] = system: anti-CD19 CAR-T cells from DLBCL subjects; test: Serial restimulation and cytolytic function of anti-CD19 CAR-T cells manufactured from DLBCL patients; format: cell-based, human
# Text: Anti-CD19 CAR-T cells were generated substantially as described in Example 1, except that T cells were isolated from two different human subjects having diffuse large B-cell lymphoma (DLBCL). […] Cells were subjected to serial restimulation over a 21 day culture period and monitored for cell expansion and cytotoxic activity.
smiles,measurement,setting,value
C=CC(=O)N1CCC[C@@H](n2nc(-c3ccc(Oc4ccccc4)cc3)c3c(N)ncnc32)C1 [ibrutinib],median survival vs CAR T + vehicle,"[1]; ibrutinib 25 mg/kg qd P.O. plus suboptimal anti-CD19 CAR T cells, FIG. 6C",increased median survival
same,tumor growth vs CAR-T cells and vehicle,[1]; ibrutinib 25 mg/kg qd P.O. plus suboptimal dose anti-CD19 CAR T cells,significantly decreased tumor growth
same,tumor burden (average radiance) vs vehicle,"[1]; ibrutinib alone, 25 mg/kg qd P.O., no CAR-T cells",no effect on tumor burden
same,survival at greater time points vs CAR T and vehicle,"[1]; ibrutinib plus CAR T, two donors, FIG. 6D, p<0.001",significantly increased survival
same,IFN-γ and IL-2 production,anti-CD19 CAR T cells [2]; 50 nM ibrutinib,some increase
same,cytokine production,"anti-CD19 CAR T cells [2]; 50 nM ibrutinib, some donors",modestly increased cytokine production
same,cytokine concentrations,anti-CD19 CAR T cells [2]; physiological concentrations of ibrutinib,did not significantly decrease cytokine concentrations
same,"tumor cells in blood, bone marrow or spleen vs vehicle",anti-CD19 CAR+ T cells [3]; CAR+ cell treatment combined with ibrutinib,significantly fewer tumor cells
same,circulating CAR+ T cells vs CAR+ T cells and vehicle,"anti-CD19 CAR+ T cells [3]; blood, days 7-26 post transfer, ibrutinib in drinking water",significant increase in circulating CAR+ T cells
same,number of cells in the blood,"anti-CD19 CAR+ T cells [3]; day 19 post CAR-T cell transfer, p<0.05",significant increase in the number of cells in the blood
same,gene expression across 594 genes,anti-CD19 CAR T cells [4],did not significantly alter gene expression
same,"expression of truncated EGFR, CD25, CD38, CD39, CD95, CD62L, CCR7, CD45RO","anti-CD19 CAR T cells [5]; 5000, 500, 50, 5 and 0.5 nM, 3 donors, up to 4 days",no significant effect
same,"phenotype as central (TCM) or effector (TEM) memory subsets (CCR7, CD45RA)",anti-CD19 CAR T cells [5]; over four days after stimulation,did not affect the phenotype
same,"expression levels of CD69, CD107a or PD-1 on CD4+ or CD8+ cells",anti-CD19 CAR T cells [5]; seen at highest (supraphysiological) concentration,subtle decrease
same,percentage of TH1 cells,"anti-CD19 CAR T cells [6]; 500 nM, 18-day serial stimulation, P<0.01",further enhanced the percentage of TH1 cells
same,additional CAR T activation or memory markers,anti-CD19 CAR T cells [6]; CAR T cells from serial stimulation assay,No significant effects
same,percentage of CAR+ T cells with TH1 phenotype (CD4+CXCR3+CRTH2−),"anti-CD19 CAR T cells [6]; after serial stimulation, greater with increasing concentrations",increase the percentage
same,gene expression changes,CAR-expressing T cells; 50 nM,"not significant, similar trends"
same,number of protein-coding genes with significantly altered expression,"CAR-expressing T cells; 500 nM, FDR<0.05, absLog2FC>0.5",23
same,"expression of HES6, HIC1, LZTFL1, NRIP1, CD38 and RARRES3",CAR-expressing T cells; ibrutinib vs control,downregulation
same,expression of MSC,CAR-expressing T cells; ibrutinib vs control,upregulation
same,expression of SELL/CD62L,CAR-expressing T cells; ibrutinib vs control,increases
same,expression of granzyme A and CD38,CAR-expressing T cells; ibrutinib vs control,decreases
same,tumor growth vs CAR T with vehicle,[7]; ibrutinib 25 mg/kg/day in drinking water plus CAR T,significantly (P<0.001) decreased tumor growth
same,median survival vs CAR T + vehicle,"[7]; ibrutinib 25 mg/kg/day in drinking water plus suboptimal anti-CD19 CAR-T cells, p<0.001",increased median survival
same,population 4 (CD4+CD44hi CXCR3 CD45RAhi CD62Lhi) as share of CAR-T cells,"anti-CD19 CAR+ T cells [8]; bone marrow, ibrutinib-treated animals",15.2%
same,populations 2 and 4 in bone marrow vs control mice,anti-CD19 CAR+ T cells [8]; CAR T plus ibrutinib,increase
same,cytolytic function of anti-CD19 CAR T cells,"anti-CD19 CAR T cells [9]; all concentrations tested (5000, 500, 50, 5, 0.5 nM) during co-culture",did not inhibit the cytolytic function
same,target cell killing,"anti-CD19 CAR T cells [9]; one donor, P<0.0001",modestly increased target cell killing
same,"cytolytic activity of anti-CD19 CAR-expressing T cells (target cell killing normalized to untreated control, AUC)","anti-CD19 CAR T cells [9]; two donors, up to supra-physiological 500 nM, E:T 2.5:1, 4 days",did not significantly impact cytolytic activity
same,CD62L expression by flow cytometry,"anti-CD19 CAR T cells [10]; after 18 days serial stimulation, donors 2 and 3",significant increase in CD62L expression
same,cell numbers and population doublings,"anti-CD19 CAR T cells [10]; day 18, 50 and 500 nM, two of three donors",enhanced cell numbers and population doublings
same,cell counts,"anti-CD19 CAR T cells [10]; donor 3, day 18, highest concentration tested","Non-significant, increased cell counts"
same,cytolytic activity,"[11]; 50 nM, after 16 days, one patient, P<0.01",increase in cytolytic activity
same,cytolytic function,"[11]; 500 nM, after 16 days serial stimulation, each subject",increase in cytolytic function
same,proliferation (cell doublings) of patient-derived CAR T cells,"[11]; 50 and 500 nM, 21 day culture, two DLBCL patients",did not inhibit the proliferation
